Data published in patent US10793509B2, “Compounds useful in the treatment of neoplastic diseases” (UNIVERSITÄT ZU KÖLN, priority 2013, dated 2020).
Like-named read-outs stand apart in the source and are kept apart here.

Experiments:
Primary CLL cells = assay: AnnexinV/PI assay on primary CLL cells; type: cell-based, human; conditions: for EC50: Homo sapiens, CLL cell, read-out: AnnexinV/PI assay EC50 Primary CLL; for selectivity for CLL cells compared to PBMCs: FIG. 3, sensitivity of CLL cells vs PBMCs
Method: (§1) PBMCs or CLL cells (5*10^6 cells/ml) were incubated for 24 h with different compounds at concentrations from 0.01 to 100 μM. Cell survival was normalized to DMSO control [vehicle]. See Example 1.
(§2) Primary CLL or peripheral blood mononuclear cells of healthy donors (5*10^6/ml) were incubated for 24 h with different compounds according to the invention and NO-ASA as a control. The compounds were added in different concentrations, in particular in concentrations from 0.01-100 μM. Cell survival was assessed by AnnexinV/PI assay (Kit commercially available, e.g. by Biotium Inc, USA; or Phoenix Flow Systems, US), the results were normalized to DMSO control [vehicle] and dose response curves were calculated using a non-linear regression model.

[1] = test system: peripheral blood mononuclear cells (PBMCs) of healthy donors; assay: AnnexinV/PI assay on PBMCs of healthy donors; type: cell-based; conditions: Homo sapiens, PBMC
Method: as §1, §2

[2] = test system: phosphorylated NFkappaBp65 protein; assay: Western blot of NFkappaB phosphorylation status in CLL cells; type: cell-based, human; conditions: 3 h; for reduction of NFkappaB activity (phosphorylated NFkappaBp65): CLL cells, 0.1, 1, 10 μM; for concentration inducing the reduction of NFkappaB p65 protein: CLL cells
Method: CLL cells were treated with B1, B9, B12 and B13 (0.1 μM, 1 μM, 10 μM) for 3 h. Untreated and DMSO (1%) treated cells served as control. GAPDH=loading control.
The BCR signalling pathway plays an important pathogenic role in CLL and lymphomas leading often to a constitutive active NFkappaB (in this state NFkappaB is phosphorylated). Therefore the influence of the derivatives on the phosphorylation status of NFkappaB was analyzed by Western Blot. CLL cells were treated with 0.1 μM, 1 μM or 10 μM of each derivate, respectively, for 3 h. CLL cells were treated with B1, B9, B12 and B13 (0.1 μM, 1 μM, 10 μM) for 3 h. Untreated and DMSO (1%) treated cells served as control. GAPDH=loading control.

[3] = test system: ovarian adenocarcinoma cell line COLO704; assay: Viability assay (ATP content, CellTiter-Glo), COLO704; type: cell-based; conditions: COLO 704, 24 h
Method: (§3) In the following experiment the possible therapeutic window for NO-ASA derivatives was investigated. […] The melanoma cell line MelJuso, the colon carcinoma cell line SW480, the small cell lung cancer cell line HCC44, the ovarian adenocarcinoma cell line COLO704 and the acute myeloid leukemia cell line SH2 were treated with concentrations of p-NO-ASA and B9, B12 and B13 in a range between 0.01 μM and 100 μM for 24 h, followed by addition of luminogenic CellTiter-Glo® reagent.
(§4) Table accompanying Example 5. Overview of the EC50 values of cell survival analyzed by ATP content and Annexin V/PI assay. n.t.; not tested

JVM-3 = assay: CellTiter-Glo ATP assay, JVM-3 cell line; type: cell-based, human; conditions: 24 h, 0.01-1000 μM
Method: (§5) Several cell lines (n=5) were treated with different concentrations of p-NO-ASA, B9, B12 and B13 ranging between 0.01 μM and 1000 μM for 24 hours followed by addition of luminogenic CellTiter-Glo®-reagent. […] For each cell line the order of used compound in the bar chart is from left to right as following: p-NO-ASA, B9, B12, B13.
(§6) Treatment success in CLL may depend on cytogenetic and molecular parameters as for instance del13q or TP53 gene disruption. Therefore, the NO-ASA derivatives were examined on (chronic) B cell lymphoma cell lines with different geno- and phenotypes (JVM3, EHEB, U2932, MEC-1, GRANTA-519). The cells were treated with concentrations between 0.01 and 1000 μM for 24 h followed by the addition of luminogenic CellTiter-Glo® reagent.

EHEB = assay: CellTiter-Glo ATP assay, EHEB cell line; type: cell-based; conditions: 24 h, 0.01-1000 μM
Method: as §5, §6

U2932 = assay: CellTiter-Glo ATP assay, U2932 cell line; type: cell-based; conditions: 24 h, 0.01-1000 μM
Method: as §5, §6

[4] = test system: colon carcinoma cell line SW480; assay: cells; type: cell-based; conditions: Homo sapiens, SW480, 24 h, read-out: Viability assay EC50, SW480
Method: The cell lines (n=5) were treated with different concentrations of p-NO-ASA, B9, B12 and B13 ranging between 0.01 μM and 100 μM for 24 hours followed by addition of luminogenic CellTiter-Glo®-reagent (see Example 5).
as §3, §4

[5] = test system: acute myeloid leukemia cell line SH2; assay: Annexin V/PI assay, SH2; type: cell-based; conditions: 24 h
[6] = test system: CLL cells without a TP53 mutation; assay: FACS analysis of treated CLL cells without TP53 mutation; type: cell-based, human; conditions: 24 h, 0.01-100 μM, FIG. 6
Method: (§7) Isolated, primary CLL cells were treated for 24 h with the EC50 of the different compounds and the ATP-content was measured by flow cytometry. For each used compound the order of mean EC50 concentrations in the bar chart is from left to right as following: EC50 CLL cells TP53 unmut (unmutated=without mutation), EC50 CLL cells TP53 mut (mutated=with mutation).
(§8) Further, the derivatives B9, B12 and B13 were tested in comparison to para-NO-ASA on CLL cells which harbour a TP53 mutation. The patient subgroup with a TP53 disruption is characterized by a considerable dismal prognosis. CLL cells of patients with and without the TP53 mutation were treated with five different concentrations (0.01, 0.1, 1, 10, 100 μM) of para-NO-ASA, B9, B12 and B13 for 24 h.

[7] = test system: small cell lung cancer cell line HCC44; assay: Viability assay (ATP content, CellTiter-Glo), HCC44; type: cell-based
Method: as §3, §4

[8] = test system: melanoma cell line MelJuso; assay: Viability assay (ATP content, CellTiter-Glo), MelJuso; type: cell-based; conditions: Homo sapiens, MEL-JUSO, 24 h
Method: as §3, §4

[9] = test system: several cancer cell lines; assay: Apoptosis (Annexin V/PI) assay, panel of cancer cell lines; type: cell-based; conditions: range over the cancer cell lines, 24 h; read-out: concentrations inducing apoptosis in different diseases (apoptosis array)
GRANTA-519 = assay: CellTiter-Glo ATP assay, GRANTA-519 cell line; type: cell-based; conditions: Homo sapiens, Granta-519; 24 h, CellTiter-Glo
Method: as §5, §6

MEC-1 = assay: CellTiter-Glo ATP assay, MEC-1 cell line; type: cell-based; conditions: Homo sapiens, MEC1; 24 h, CellTiter-Glo
Method: as §5, §6

[10] = test system: small cell lung cancer cell line HCC44; assay: Annexin V/PI assay, HCC44; type: cell-based; conditions: Homo sapiens, HCC44, 24 h
[11] = test system: melanoma cell line MelJuso; assay: Annexin V/PI assay, MelJuso; type: cell-based; conditions: Homo sapiens, MEL-JUSO, 24 h
TP53-mutated CLL cells = assay: FACS analysis of treated CLL cells with TP53 mutation; type: cell-based, human; conditions: 24 h, 0.01-100 μM, FIG. 6
Method: as §7, §8

[12] = test system: acute myeloid leukemia cell line SH2; assay: Viability assay (ATP content, CellTiter-Glo), SH2; type: cell-based; conditions: 24 h
Method: as §3, §4

[13] = test system: SW480, MelJuso, HCC44, SH2 and COLO704 cell lines; type: cell-based; conditions: 24 h, 0.01-100 μM
Method: as §3

[14] = test system: ovarian adenocarcinoma cell line COLO704; assay: Annexin V/PI assay, COLO704; type: cell-based; conditions: COLO 704, 24 h
[15] = 24 h incubation, 0.01-100 μM, 5*10^6 cells/ml, normalized to DMSO control
[16] = 24 h incubation, value extrapolated beyond tested 0.01-100 μM, read-out: AnnexinV/PI assay EC50 PBMCs (* = extrapolated)
[17] = 24 h incubation, 0.01-100 μM, 5*10^6 cells/ml, normalized to DMSO control, read-out: AnnexinV/PI assay EC50 PBMCs

Nc1cccc2c(S(=O)(=O)Oc3ccc(CO[N+](=O)[O-])cc3)cccc12 [B16, 4-((nitrooxy)methyl)phenyl 5-aminonaphthalene-1-sulfonate]
EC50 (Primary CLL cells; [15]): 82.4 µM
EC50 [1, 16]: 370 µM

O=COCc1ccc(OC(=O)c2ccccc2)cc1 [B10, 4-((formyloxy)methyl)phenyl benzoate]
EC50 (Primary CLL cells; [15]): 79.4 µM
EC50 [1, 16]: 859 µM

COc1ccccc1C(=O)Oc1ccc(CO[N+](=O)[O-])cc1 [B18, 4-((nitrooxy)methyl)phenyl 2-methoxybenzoate]
EC50 (Primary CLL cells; [15]): 26 µM

O=C(Oc1ccc(CO[N+](=O)[O-])cc1)C1CCCCC1 [B14, 4-((nitrooxy)methyl)phenyl cyclohexane carboxylate]
EC50 (Primary CLL cells; [15]): 3.31 µM
EC50 [1, 17]: 20.2 µM

C#Cc1cc(CO[N+](=O)[O-])ccc1OC(=O)c1ccccc1 [B20, 2-ethynyl-4-((nitrooxy)methyl)phenyl benzoate]
EC50 (Primary CLL cells; [15]): 21.8 µM
EC50 [1, 16]: 308 µM

O=C(Oc1ccc(CO[N+](=O)[O-])cc1)c1cc(C(F)(F)F)ccc1Cl [B6, 4-((nitrooxy)methyl)phenyl 2-chloro-5-(trifluoromethyl)benzoate]
EC50 (Primary CLL cells; [15]): 4.42 µM
EC50 [1, 17]: 73.9 µM

O=C(Oc1ccc(CCl)cc1)c1ccccc1 [B12, 4-(chloromethyl)phenyl benzoate]
reduction of NFkappaB activity (phosphorylated NFkappaBp65) [2]: concentration dependent reduction
concentration inducing the reduction of NFkappaB p65 protein [2]: 10 µM
EC50 [3]: 2.77 µM
ATP content in JVM-3 (JVM-3): reduced ATP content
ATP content in EHEB (EHEB): reduced ATP content
selectivity for CLL cells compared to PBMCs (Primary CLL cells; 24 h): selective for CLL cells
EC50 (Primary CLL cells; [15]): 1.33 µM
ATP content in U2932 (U2932): reduced ATP content
EC50 [4]: 130 µM
EC50 [5]: 1.68 µM
effect on CLL cells without a TP53 mutation [6]: great effect
EC50 ([7]; 24 h): 1030 nM
EC50 ([7]; Homo sapiens, HCC44, 24 h): 1050 nM
EC50 [8]: 540 nM
EC50 [9]: 1 to 5 µM
EC50 [1, 17]: 35 µM
EC50 (GRANTA-519): 0.68 µM
EC50 (MEC-1): 3.24 µM
EC50 [10]: 7.35 µM
EC50 [11]: 4.79 µM
effect on TP53-mutated CLL cells in comparison to para-NO-ASA (B1) (TP53-mutated CLL cells): more effective
EC50 [12]: 10 nM
ATP content in SW480, MelJuso, HCC44, SH2 and COLO704 cell lines [13]: reduced ATP content
EC50 [14]: 1.8 µM

O=C(Oc1ccc(CO)cc1)c1ccccc1 [B8, 4-(hydroxymethyl)phenyl benzoate]
EC50 (Primary CLL cells; [15]): 57.3 µM

CC(=O)Oc1cc(C)ccc1C(=O)Oc1ccc(CO[N+](=O)[O-])cc1 [B3, 4-((nitrooxy)methyl)phenyl 2-actetoxy-4-methylbenzoate]
EC50 (Primary CLL cells; [15]): 4 µM
EC50 [1, 17]: 55.1 µM

CC(C)(C)[Si](C)(C)OCc1ccc(OC(=O)c2ccccc2)cc1 [B7, 4-(((tert-butyldimethylsilyl)oxy)methyl)phenyl benzoate]
EC50 (Primary CLL cells; [15]): 52.8 µM
EC50 [1, 16]: 203 µM

O=C(Oc1ccc(CO)cc1)c1cc(C(F)(F)F)ccc1Cl [B5, 4-(hydroxymethyl)phenyl 2-chloro-5-(trifluoromethyl)benzoate]
EC50 (Primary CLL cells; [15]): 37.2 µM
EC50 [1, 16]: 108 µM

O=C(Oc1ccc(CO[N+](=O)[O-])cc1)c1cccc2ccccc12 [B13, 4-((nitrooxy)methyl)phenyl 1-naphthoate]
reduction of NFkappaB activity (phosphorylated NFkappaBp65) [2]: concentration dependent reduction
concentration inducing the reduction of NFkappaB p65 protein [2]: 10 µM
EC50 [3]: 7.86 µM
ATP content in JVM-3 (JVM-3): reduced ATP content
ATP content in EHEB (EHEB): reduced ATP content
selectivity for CLL cells compared to PBMCs (Primary CLL cells; 24 h): selective for CLL cells
EC50 (Primary CLL cells; [15]): 1.04 µM
ATP content in U2932 (U2932): reduced ATP content
EC50 [4]: 190 µM
EC50 [5]: 6.95 µM
EC50 ([7]; Homo sapiens, HCC44, 24 h): 1680 nM
EC50 [8]: 4790 nM
EC50 [9]: 7 to 57 µM
EC50 [1, 17]: 52.7 µM
EC50 (GRANTA-519): 19.7 µM
EC50 (MEC-1): 24.1 µM
EC50 [10]: 37.9 µM
EC50 [11]: 57.5 µM
effect on TP53-mutated CLL cells in comparison to para-NO-ASA (B1) (TP53-mutated CLL cells): more effective
EC50 [12]: 640 nM
ATP content in SW480, MelJuso, HCC44, SH2 and COLO704 cell lines [13]: reduced ATP content
EC50 [14]: 53.7 µM

CC(=O)Oc1ccc(C)cc1C(=O)Oc1ccc(CO[N+](=O)[O-])cc1 [B2, 4-((nitrooxy)methyl)phenyl 2-actetoxy-5-methylbenzoate]
EC50 (Primary CLL cells; [15]): 4.75 µM
EC50 [1, 17]: 48.5 µM

COc1cc(CO[N+](=O)[O-])ccc1OC(=O)c1ccccc1 [B11, 2-methoxy-4-((nitrooxy)methyl)phenyl benzoate]
EC50 (Primary CLL cells; 24 h): 14.7 µM
EC50 ([1]; 24 h, read-out: AnnexinV/PI assay EC50 PBMCs): 24.4 µM
